Assay results as given in US6800481B1, “Stable macroscopic membranes formed by self-assembly of amphiphilic peptides and uses therefor” (priority 1992, dated 2004).
Entries after “also recorded” stand apart in the source; their conditions may differ.

Assays:
[1] = test system: striatum (a brain structure); assay: In vivo injection into the striatum, gliosis (nissl stain); conditions: rats, 1 μl into the striatum
Procedure: Three hundred g rats were anesthesized with equithesin (0.3 ml/100 g body weight). The skull was surgically exposed and small burr holes were stereotaxically drilled at AP=+1.5, ML=+/−3.0 relative to bregma. An injection cannula was placed at a depth of −4.5 in the striatum (a brain structure). Experimental rats received 1 μl of EAK16 or RAD16 injected into the striatum. Control rats received similar injections of ibotenic acid, a well characterized toxin, as a positive contorl for gliosis, the experimental rats also received 35 μl injection of EAK16 or RAD16 into the thigh muscle (n=2 for each group). The rate were allowed to recover, then sacrificed for tissue harvest.

[2] = test system: 3T3; assay: Cell attachment to biopolymer sheets, normal or Ca++ and Mg++ free medium (Table 6); type: cell-based, mouse; parameters: key: ++++: strong attachment; +++: moderate attachment; ++: weak attachment; +/−: little or no attachment; conditions: 3T3, 30 min, Normal Ca^++ & Mg^++ serum-free + Cyclohex
Procedure: (§1) Cells were pretreated in serum-free medium containing 30 μg/ml cyclohexamide for 2 hours before introduction to the peptide membranes. The cells used for the calcium and magnesium-free condition were pre-equilibrated in Ca^++ and Mg^++ free medium containing 5 mM EDTA for 15 minutes before introduction to the peptide membranes. Cells were allowed to attach to the peptide membranes for 30 minutes, 1 and 8 hours at 37° C. The attached cells were shaken for […] on a rotary rocker at 60 r.p.m., then scored under phase contrast microscopy.

[3] = test system: PC12NGF; assay: as above; type: cell-based, rat; parameters: key: ++++: strong attachment; +++: moderate attachment; ++: weak attachment; +/−: little or no attachment
Procedure: as §1

[4] = test system: PC12; assay: as above; type: cell-based, rat; parameters: key: ++++: strong attachment; +++: moderate attachment; ++: weak attachment; +/−: little or no attachment
Procedure: as §1

[5] = Testing of peptides for macroscopic membrane formation (phase-contrast microscope, Congo Red staining); type: physicochemical
Source text: The effect of length and sequence on membrane formation was examined using several peptides (Table 1 and Example 3). […] Very long peptides, e.g., of about 200 amino acids, may encounter problems due to insolubility and intramolecular interactions which destabilize membrane formation. […] The optimal lengths for membrane formation will probably vary with the amino acid composition.
The EAK12 and EAK16 tested for membrane formation were acetylated and aminylated at both N- and C-terminal ends. […] The peptides were initially dissolved in water (5 mg/ml) or in 23% acetonitrile (10 mg/ml). A volume of 5-10 microliters of the dissolved peptides were applied to the DMEM medium, PBS or water. The formation of the membrane was first observed under a phase-contrast microscope and then, by the naked eye after staining with Congo Red.

[6] = test system: NGF differentiated PC12 cells, retonic acid-differentiated human neuroblastoma and mouse cerebellum granule cells; assay: Neurite outgrowth on biopolymers, several neuronal cell types; type: cell-based
Source text: The invention further relates to the regeneration of nerves with filaments of the membranes of the present invention. Nerve regeneration can be promoted and directed by transplanting filaments of RAD16 along the correct path to their targets. This would be extremely useful for patients with severed peripheral nerves. Such a technology could be refined to help people with spinal cord injuries.

[7] = type: physicochemical
Procedure: Once formed, the macroscopic membranes are stable in a variety of aqueous solutions, including water, phosphate-buffered saline (PBS), tissue culture medium, serum, and also in ethanol, and can be transferred to and stored in any of these liquids. […] The membranes can be transferred from one solution to another using a solid support such as a spatula. They can be broken by cutting, tearing or shearing.
The stability of the membranes was also tested under a range of temperature, pH and chemical conditions. For these experiments, membranes were formed by adding 20 μl of a 0.5 mM stock solution of EAK16 to 0.5 ml of PBS, and transferred into water or other solutions at test conditions.
The membranes could be frozen and thawed, although care was required in handling the frozen membranes which were brittle. In boiling water, the membranes tended to be sheared by the mechanical agitation. […] (FIGS. 9A and 9B). […] Such strong thermal stability of the defined β-sheet structure of EAK16 is unusual for a small peptide. For example, these findings contrast with the α-helix-forming sixteen residue (Ala, Glu, Lys)-containing peptides studied previously (Marqusee and Baldwin, 1987).
The EAK16 membranes were also tested in water at pH 1.5, 3, 7 and 11 at room temperature for at least a week and at 95° C. for about 4 hours. The membranes were unaffected at these pH. […] It is possible that the complementary interactions between the Glu and Lys side-chains are strong even when the carboxyl groups of the Glu residues have been protonated at pH 1.5 and 3, due to their ability to form hydrogen bonds even when protonated.
The EAK16 membranes were further tested for resistance to chemical denaturation under the following conditions: 1% and 10% sodium dodecyl sulfate (SDS); 1, 2, 3, 4, 5, 6 and 7 M guanidine-HCl; and 1, 2, 3, 4, 5, 6, 7 and 8 M urea. […] The membranes were also tested at 95° C. for 4 hours in 10% SDS; 7 M guanidine-HCl; and at 8 M urea.

[8] = test system: 3T3 fibroblast cells; assay: Cell attachment to biopolymer sheets, with serum or serum-free + cyclohexamide (Table 5); type: cell-based, mouse; parameters: key: ++++: strong attachment; +++: moderate attachment; ++: weak attachment; +/−: little or no attachment
Procedure: 3T3 fibroblast cells were introduced to membranes of RAD16 and EAK16 in normal serum-containing medium or in serum-free medium containing 30 μg/ml cyclohexamide (cells used for this condition were pretreated in this medium for 2 hours before plating). Cells were allowed to attach to the membranes for 30 minutes, 1 and 8 hours at 37° C. The attached cells were shaken for 10 minutes on a rotary rocker at 60 r.p.m., then scored under phase contrast microscopy. The decrease in cells attached to the membrane in the serum-free condition reflects cell loss due to serum deprivation.

[9] = test system: PC12 cells; assay: In vitro neurite outgrowth on peptide membranes; type: cell-based, rat; parameters: Neurite outgrowth, NGF treated, 14 days: key to the marks not given beside the values
Procedure: The suitability of these materials for supporting in vitro neurite outgrowth was tested by treating biomaterial-attached PC12 cells with nerve growth factor (NGF). This treatment induces PC12 cells to differentiate into sympathetic neurons which can send out long processes called neurites. There was a marked difference in the neurite promoting properties of the two materials tested (EAK16 and RAD16).
Nerve growth factor differentiated PC12 cells have been used extensively in studies of neurite outgrowth. PC12 cells upregulate the number of calcium-dependent and -independent cell adhesion receptors in response to nerve growth factor. Cell attachment and neurite outgrowth from nerve growth factor differentiated PC12 cells was examined on membranes of RAD16 and EAK16 in order to determine whether membranes containing RGD-like sequences would preferentially support these cell activities. Neurite outgrowth on peptide membranes is of interest for potential applications of nerve repair.
Untreated PC12 cells were introduced to peptide membranes of EAK16 and RAD16 suspended in 85% RMMP1, 10% heat inactivated horse serum, 5 fetal bovine serum. Half of the cells were treated with nerve growth factor (50 ng/ml, NGF) and were supplemented with NGF every 3-4 days for 14 days. […] The neurite outgrowth reached greater than 400 μm in length, approximately 15-20 times the cell body, following the contour of the matrices in a three dimensional network.

[10] = NGF-treated PC12 cells, 14 days

## N[C@H](C(=O)O)c1cc(=O)[nH]o1 [ibotenic acid, reference compound]
[1]
  gliosis / gliotic scarring after brain injection: robust gliotic scarring around the injection site

## H-AAAADADARARADAD-OH [RAD16]
[2]
  cell attachment: ++++
[3]; 30 min, Ca^++ & Mg^++ free, EDTA serum-free + Cyclohex
  cell attachment: ++++
[3]; 30 min, Normal Ca^++ & Mg^++ serum-free + Cyclohex
  cell attachment: ++++
[3]; 60 min, Ca^++ & Mg^++ free, EDTA serum-free + Cyclohex
  cell attachment: ++++
[3]; 60 min, Normal Ca^++ & Mg^++ serum-free + Cyclohex
  cell attachment: ++++
[4]; PC12, 30 min, Ca^++ & Mg^++ free, EDTA serum-free + Cyclohex
  cell attachment: ++++
[4]; PC12, 30 min, Normal Ca^++ & Mg^++ serum-free + Cyclohex
  cell attachment: ++++
[4]; PC12, 60 min, Ca^++ & Mg^++ free, EDTA serum-free + Cyclohex
  cell attachment: ++++
[4]; PC12, 60 min, Normal Ca^++ & Mg^++ serum-free + Cyclohex
  cell attachment: ++++
[5]; identical conditions, in words
  formation of macroscopic membranes: found to form macroscopic membranes
[5]; water
  membranous structure in Water: −
[6]
  neurite outgrowth on biopolymers: occurs on RAD16-based biopolymers
[7]
  stability of membranes in water or PBS: stable in water or PBS for at least a week
[8]; 3T3, 30 min, medium with serum, no cyclohexamide
  cell attachment: ++++
[8]; 3T3, 30 min, serum-free medium, + cyclohexamide
  cell attachment: ++++
[8]; 3T3, 60 min, medium with serum, no cyclohexamide
  cell attachment: ++++
[8]; 3T3, 60 min, serum-free medium, + cyclohexamide
  cell attachment: ++++
[8]; 3T3, 8 hrs, medium with serum, no cyclohexamide
  cell attachment: ++++
[8]; 3T3, 8 hrs, serum-free medium, + cyclohexamide
  cell attachment: ++
[9]; NGF-treated PC12 cells on membranes
  neurite outgrowth of NGF-treated PC12 cells, in words: robust neurite processes; also recorded: Robust neurite outgrowth
[9]; [10]
  neurite outgrowth length: greater than 400 μm
  neurite outgrowth length relative to the cell body: 15-20 times the cell body
[9]; PC12 cells without NGF, 14 days
  Neurite outgrowth, untreated, 14 days: − (no neurite outgrowth)
[9]; PC12 cells, NGF 50 ng/ml, 14 days
  Neurite outgrowth, NGF treated, 14 days: ++++
